Measurements from patent US8350062B2, “Synthesis and anticancer activity of new actin-targeting small-molecule agents” (priority 2009, dated 2013).

Tests used:
Experiment in all cases: NCI 60 cell line single dose screen
Format in all cases: cell-based, human
MALME-3M = MALME-3M (Melanoma), 10 micromolar, 48 h
From the text: (§1) Analog 10 was screened utilizing 60 different human tumor cell lines, representing leukemia, melanoma and cancers of the lung, colon, brain, ovary, breast, prostate, and kidney in order to show selective growth inhibition or cell killing of particular tumor cell lines. This screen is unique in that the complexity of a 60 cell line dose response produced by a given compound results in a biological response pattern which can be utilized in pattern recognition algorithms (COMPARE program. See: http://dtp.nci.nih.gov/docs/compare/compare.html). Using these algorithms, it is possible to assign a putative mechanism of action to a test compound, or to determine that the response pattern is unique and not similar to that of any of the standard prototype compounds included in the NCI database. In addition, following characterization of various cellular molecular targets in the 60 cell lines, it may be possible to select compounds most likely to interact with a specific molecular target.
(§2) The screening is a two-stage process, beginning with the evaluation of the compound against the 60 cell lines at a single dose of 10 uM.
(§3) The human tumor cell lines of the cancer screening panel are grown in RPMI 1640 medium containing 5% fetal bovine serum and 2 mM L-glutamine. For a typical screening experiment, cells are inoculated into 96 well microtiter plates in 100 μL at plating densities ranging from 5,000 to 40,000 cells/well depending on the doubling time of individual cell lines. After cell inoculation, the microtiter plates are incubated at 37° C., 5% CO2, 95% air and 100% relative humidity for 24 h prior to addition of experimental drug.
(§4) After 24 h, two plates of each cell line are fixed in situ with TCA, to represent a measurement of the cell population for each cell line at the time of drug addition (Tz). Experimental drugs are solubilized in dimethyl sulfoxide at 400-fold the desired final maximum test concentration and stored frozen prior to use. At the time of drug addition, an aliquot of frozen concentrate is thawed and diluted to twice the desired final maximum test concentration with complete medium containing 50 μg/ml gentamicin.
(§5) Following drug addition, the plates are incubated for an additional 48 h at 37° C., 5% CO2, 95% air, and 100% relative humidity. For adherent cells, the assay is terminated by the addition of cold TCA. Cells are fixed in situ by the gentle addition of […] of cold 50% (w/v) TCA (final concentration, 10% TCA) and incubated for 60 minutes at 4° C. The supernatant is discarded, and the plates are washed five times with tap water and air dried. Sulforhodamine B (SRB) solution (100 μl) at 0.4% (w/v) in 1% acetic acid is added to each well, and plates are incubated for 10 minutes at room temperature. After staining, unbound dye is removed by washing five times with 1% acetic acid and the plates are air dried. Bound stain is subsequently solubilized with 10 mM trizma base, and the absorbance is read on an automated plate reader at a wavelength of 515 nm. For suspension cells, the methodology is the same except that the assay is terminated by fixing settled cells at the bottom of the wells by gently adding 50 μl of 80% TCA (final concentration, 16% TCA). Using the absorbance measurements [time zero, (Tz), control growth, (C), and test growth in the presence of drug (Ti)], the percentage growth is calculated.

A549/ATCC = A549/ATCC (Non-Small Cell Lung Cancer), 10 micromolar, 48 h
From the text: as §1, §2, §3, §4, §5

MOLT-4 = MOLT-4 (Leukemia), 10 micromolar, 48 h
From the text: as §1, §2, §3, §4, §5

HCT-15 = HCT-15 (Colon Cancer), 10 micromolar, 48 h
From the text: as §1, §2, §3, §4, §5

OVCAR-4 = OVCAR-4 (Ovarian Cancer), 10 micromolar, 48 h
From the text: as §1, §2, §3, §4, §5

HCC-2998 = HCC-2998 (Colon Cancer), 10 micromolar, 48 h
From the text: as §1, §2, §3, §4, §5

NCI/ADR-RES = NCI/ADR-RES (Ovarian Cancer), 10 micromolar, 48 h
From the text: as §1, §2, §3, §4, §5

NCI-H23 = NCI-H23 (Non-Small Cell Lung Cancer), 10 micromolar, 48 h
From the text: as §1, §2, §3, §4, §5

RPMI-8226 = RPMI-8226 (Leukemia), 10 micromolar, 48 h
From the text: as §1, §2, §3, §4, §5

SN12C = SN12C (Renal Cancer), 10 micromolar, 48 h
From the text: as §1, §2, §3, §4, §5

NCI-H226 = NCI-H226 (Non-Small Cell Lung Cancer), 10 micromolar, 48 h
From the text: as §1, §2, §3, §4, §5

OVCAR-3 = OVCAR-3 (Ovarian Cancer), 10 micromolar, 48 h
From the text: as §1, §2, §3, §4, §5

HOP-62 = HOP-62 (Non-Small Cell Lung Cancer), 10 micromolar, 48 h
From the text: as §1, §2, §3, §4, §5

A498 = A498 (Renal Cancer), 10 micromolar, 48 h
From the text: as §1, §2, §3, §4, §5

RXF 393 = RXF 393 (Renal Cancer), 10 micromolar, 48 h
From the text: as §1, §2, §3, §4, §5

NCI-H460 = NCI-H460 (Non-Small Cell Lung Cancer), 10 micromolar, 48 h
From the text: as §1, §2, §3, §4, §5

MCF7 = MCF7 (Breast Cancer), 10 micromolar, 48 h
From the text: as §1, §2, §3, §4, §5

NCI-H522 = NCI-H522 (Non-Small Cell Lung Cancer), 10 micromolar, 48 h
From the text: as §1, §2, §3, §4, §5

SNB-19 = SNB-19 (CNS Cancer), 10 micromolar, 48 h
From the text: as §1, §2, §3, §4, §5

HT29 = HT29 (Colon Cancer), 10 micromolar, 48 h
From the text: as §1, §2, §3, §4, §5

ACHN = ACHN (Renal Cancer), 10 micromolar, 48 h
From the text: as §1, §2, §3, §4, §5

UO-31 = UO-31 (Renal Cancer), 10 micromolar, 48 h
From the text: as §1, §2, §3, §4, §5

In the case of `COCCC(=O)NC[C@H](O)[C@H](C)C(=O)NCCC[C@H]1O[C@@]2(CCC[C@@H](CC[C@H](C)/C=C(\C)[C@H](C)O)O2)CCC1C` (stereo partly shown) [Analog 10], the “Growth Percent” value (MALME-3M) is reported as 72.36%, the “Growth Percent” value (A549/ATCC) is reported as 44.50% and the “Growth Percent” value (MOLT-4) is reported as 57.48%. For the same compound, the “Growth Percent” value (HCT-15) was 58.89%, the “Growth Percent” value (OVCAR-4) was 45.16% and the “Growth Percent” value (HCC-2998) was 66.34%. The “Growth Percent” value (NCI/ADR-RES) was 88.16%, the “Growth Percent” value (NCI-H23) was 56.78% and the “Growth Percent” value (RPMI-8226) was 58.70%. The “Growth Percent” value (SN12C) was 57.59%, the “Growth Percent” value (NCI-H226) was 58.32% and the “Growth Percent” value (OVCAR-3) was 83.59%. The “Growth Percent” value (HOP-62) was 40.92%, the “Growth Percent” value (A498) was 1.82% and the “Growth Percent” value (RXF 393) was 26.83%. For the same compound, the “Growth Percent” value (NCI-H460) was 48.25%, the “Growth Percent” value (MCF7) was 62.27% and the “Growth Percent” value (NCI-H522) was 32.60%. The “Growth Percent” value (SNB-19) was 75.95%, the “Growth Percent” value (HT29) was 30.53% and the “Growth Percent” value (ACHN) was 51.57%. The “Growth Percent” value (UO-31) was 22.67%.
